The subject of this assay is db/db mice. Nature of the assay: Weekly fasting triglyceride levels in db/db mice. The class given is in vivo, mouse. Conditions: after 10 weeks of treatment, P<0.05. As for the experimental part:
Weekly fasting triglyceride levels of male db/db mice treated with GW1929 (5 mg/kg), N-931 (375 mg/kg) and vehicle were taken for 10 weeks. Animals were provided with T2018 rodent diet ad libitum except when fasting. Animals were fasted overnight before measurements were taken. The values indicated are percent triglyceride levels of vehicle, n=8.

Consider `CN(CCOc1ccc(C[C@H](Nc2ccccc2C(=O)c2ccccc2)C(=O)O)cc1)c1ccccn1` [GW1929, N-(2-Benzoylphenyl)-O-[2-(methyl-2-pyridinylamino)ethyl]-L-tyrosine], for which the “fasting triglyceride levels compared to vehicle” value is listed as “significant reduction in triglyceride levels”. For the same molecule, the reduction of triglycerides (N931 375 mg/kg, GW1929 5 mg/kg) is 43%.

These data come from patent publication US8852657B2, “Chromones as therapeutic agents” (Unigen, Inc., priority 2007, dated 2014).
